One series concerns PANC-1 cells. Nature of the series: Cell viability MTT assay 48 h. It is filed as cell-based. The following applies: Homo sapiens. Here is the method: (§1) Cell viability was assessed using a MTT assay at 48 h. On day 1, 25,000 cells/well were seeded into 96-well plates in 100 µl culture medium. On day 2, drugs at concentrations ranging from 1 µM to 100 µM were added. In all experiments the drug-solvents (EtOH, DMSO) were added as controls to evaluate possible solvent cyto-toxicities. After the established incubation time with drugs (48 h), MTT (0.5 mg/ml) was added to each well, and after 3–4 h incubation at 37 °C, the supernatants were removed. The formazan crystals formed were solubilized using 100 µl DMSO/EtOH (1:1) after which the absorbance values at 570 and 630 nm were determined using a microplate reader Victor 3 from PerkinElmer Life Sciences.
On the technique in general: Tetrazolium assays rely on reduction of a dye to a coloured formazan, in cell work by metabolically active cells.

In the next series the test system is MiaPaCa2 cells. Nature of the series: Cell viability MTT assay 48 h. It is filed as cell-based. The following applies: Homo sapiens, MIA PaCa-2; MTT 48 h; read-out: Activity EC50 ± SEM, MiaPaCa2. The method, then:
as §1

A further series deals with HPDE cells. Nature of the series: Cell viability MTT assay 48 h. The class given is cell-based. To be noted: Homo sapiens, MTT 48 h, read-out: Activity EC50 ± SEM, HPDE (normal cells). Here is the method:
as §1

For the next series, the system named is BxPC3 cells. In words: Cell viability MTT assay 48 h. It is filed as cell-based. To be noted: Homo sapiens, BXPC-3; MTT 48 h; read-out: Activity EC50 ± SEM, BxPC3. The method, then:
as §1

In the next series the test system is KP02 cells. In words: Cell viability MTT assay 48 h. To be noted: Mus musculus; MTT 48 h; read-out: Activity EC50 ± SEM, KP02. It is filed as cell-based. The method, then:
as §1

Another series deals with AspC1 cells. In words: Cell viability MTT assay 48 h. The class given is cell-based. To be noted: Homo sapiens, MTT 48 h, read-out: Activity EC50 ± SEM, AspC1. Here is the method:
as §1

In series [1] the test system is mitochondrial depolarization. In words: Mitochondrial depolarization assay (JC-1). The class given is cell-based, human and murine. The following applies: 50 µM, 2 h, JC1 staining. The method, then:
Staining with JC-1 fluorescent probe (Biotium Inc., Freemont, CA, USA) was performed as detailed in Riganti et al.. The resulting fluorescence units were used to calculate the percentage of green-fluorescent (i.e., depolarized) mitochondria versus red-fluorescent (i.e., polarized) mitochondria.

The test system of series [2] is human (MiaPaCa2, PANC-1, AsPC1, BxPC3) and murine (KP02, PANC02) pancreatic cancer cells. In words: Cell viability MTT assay 48 h, panel of pancreatic cancer cell lines. It is filed as cell-based. The following applies: range over six pancreatic cancer cell lines; read-out: EC50 cytotoxic activity in all the cell lines studied. The method, then:
as §1

For another series, the target named is T1, sigma-1 receptors (Homo sapiens, UniProt Q99720).
T1 construct: endogenous in cells; host or cells: PANC-1, MiaPaCa2 (whole cells)
T1 sequence (Q99720 whole entry): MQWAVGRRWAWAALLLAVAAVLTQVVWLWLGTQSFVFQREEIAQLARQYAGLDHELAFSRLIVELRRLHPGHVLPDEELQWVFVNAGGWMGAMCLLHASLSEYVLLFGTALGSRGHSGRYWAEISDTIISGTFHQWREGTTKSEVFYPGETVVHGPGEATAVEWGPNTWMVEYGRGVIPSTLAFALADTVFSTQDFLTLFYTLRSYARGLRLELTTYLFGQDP
In words: Flow cytometry displacement of sigma-1 fluorescent ligand LM1 in human pancreatic cancer cells. It is filed as binding. The method, then: (§2) (10 µM) was co-incubated. At the end of the incubation periods, the cells were washed twice with PBS, detached with […] Cell Dissociation Solution (Sigma Chemical Co.) for 10 min at 37 °C, centrifuged at 13,000 g for 5 min and resuspended in 500 µl PBS. Fluorescence was recorded using a Bio-Guava® easyCyte™ 5 Flow Cytometry System (Millipore, Billerica, MA, USA), equipped with a 530 nm band pass filter. For each analysis, 50,000 events were collected and analyzed using InCyte software (Millipore).
For orientation: In flow cytometry, cells or beads pass a laser one at a time.

Series [3] deals with T2, sigma-2 receptors (Mus musculus, UniProt Q8VD00).
T2 construct: endogenous in cells; host or cells: KP02 (murine pancreatic cancer cells)
T2 sequence (Q8VD00 whole entry): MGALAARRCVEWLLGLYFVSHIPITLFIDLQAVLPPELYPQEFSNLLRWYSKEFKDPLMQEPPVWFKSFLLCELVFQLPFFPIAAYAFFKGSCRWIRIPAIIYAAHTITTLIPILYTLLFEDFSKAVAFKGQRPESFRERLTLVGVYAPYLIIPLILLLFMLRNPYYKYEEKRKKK
In words: Flow cytometry displacement of sigma-2 fluorescent ligand NO1 in murine KP02 cells. The class given is binding. The method, then:
as §2, with “Flow cytometry studies to detect receptor densities and ligand binding affinities were carried out according to Abate et al. and Niso et al., for the sigma-1 and sigma-2 receptors, respectively. […]” for “(10 µM) was co-incubated.”, “USA)” for “USA),”

In a further series the test system is caspase 7. In words: Caspase 7 activity assay in pancreatic cancer cells. To be noted: 50 µM, 2 h. The class given is cell-based, human and murine. The method, then: Caspase 3, caspase 7 and caspase 9 activation was measured using a Caspase 3/7 Fluorescence Assay kit (Cayman Chemical, Ann Arbor, MI, USA) and a Caspase 9 fluorometric assay kit (Enzo Life Science, Roma, Italy). The results are expressed as nmol of the hydrolyzed substrate of each caspase/mg cellular proteins, according to a previously set titration curve.

In the next series the test system is PANC02 cells. Nature of the series: Cell viability MTT assay 48 h. To be noted: Mus musculus, MTT 48 h, read-out: Activity EC50 ± SEM, PANC02. The class given is cell-based, murine. The method, then: as §1
The conditions of series [4]: mouse, in vivo.
Method: 2 × 10^5 PANC-1 or Mia-PaCa2 cells were inoculated subcutaneously in the right flank of 6-week old C57BL/6 female nude mice (Charles River Laboratories Italia, Calco), housed (5 per cage) under a 12 h light/dark cycle, with food and drinking water provided ad libitum. Tumor growth was measured daily by caliper, according to the equation (LxW^2)/2, where L = tumor length and W = tumor width. […] Tumor volumes and animal weights were monitored daily. Animals were euthanized at day 18 or 36 after randomization with zolazepam (0.2 ml/kg) and xylazine (16 mg/kg). […] Red blood cell (RBC) count, hemoglobin (Hb), white blood cell (WBC) count, platelet (PLT) count, lactate dehydrogenase (LDH), aspartate aminotransferase (AST), alanine aminotransferase (ALT), alkaline phosphatase (AP), creatinine and creatine phosphokinase (CPK) were measured in blood samples collected immediately after euthanasia, using commercially available kits from Beckman Coulter Inc (Beckman Coulter, Miami, FL, USA).
Blood was collected immediately after euthanasia and analyzed for red blood cells (RBC) count, hemoglobin (Hb), white blood cells (WBC) count, platelets (PLT) count, lactate dehydrogenase (LDH), aspartate aminotransferase (AST), alanine aminotransferase (ALT), alkaline phosphatase (AP), creatinine, creatine phosphokinase (CPK). Data are presented as means ± SD.
Series [5] concerns the target T3, sigma-2 receptors (Homo sapiens, UniProt Q5BJF2).
T3 construct: endogenous in cells; host or cells: MiaPaCa2, PANC-1, AsPC1 (whole cells)
Nature of the series: Flow cytometry displacement of sigma-2 fluorescent ligand NO1 in human pancreatic cancer cells. The class given is binding. The method, then: as §2, with “Flow cytometry studies to detect receptor densities and ligand binding affinities were carried out according to Abate et al. and Niso et al., for the sigma-1 and sigma-2 receptors, respectively. […]” for “(10 µM) was co-incubated.”, “USA)” for “USA),”

In series [6] the test system is ATG5, ATG7, ATG12, beclin 1, p62, LC3. In words: Western blotting of autophagy and sequestration markers. It is filed as cell-based, human and murine. The following applies: 50 µM, 2 h. Here is the method: Cells were rinsed with ice-cold lysis buffer (50 mM, Tris, 10 mM EDTA, 1 % v/v Triton-X100), supplemented with protease inhibitor cocktail set III (80 µM aprotinin, 5 mM bestatin, 1.5 mM leupeptin, 1 mM pepstatin; Calbiochem, San Diego, CA, USA), 2 mM phenylmethylsulfonyl fluoride and 1 mM Na3VO4, then sonicated and centrifuged at 13,000 g for 10 min at 4 °C. 20 µg protein extracts were subjected to SDS-PAGE and probed with antibodies directed against ATG5, ATG7, ATG12, beclin, p62, LC3, GRP78, ATF6, IRE-1α and PERK (all from Abcam, Cambridge, UK), followed by incubation with a peroxidase-conjugated secondary antibody (Bio-Rad Laboratories). Next, the membranes were washed with Tris-buffered saline-Tween 0.1 % v/v solution, and proteins were detected by enhanced chemiluminescence (Bio-Rad Laboratories). To check for equal loading, the samples were probed with an anti-β-tubulin antibody (Santa Cruz Biotechnology Inc., Santa Cruz, CA, USA).
(In general: A western blot detects proteins with antibodies after separation by electrophoresis.)

“And” between values parts separate entries of the source, which are not always exact repeats. Equal entries are not always repeated.

T3 sequence (Q5BJF2 whole entry): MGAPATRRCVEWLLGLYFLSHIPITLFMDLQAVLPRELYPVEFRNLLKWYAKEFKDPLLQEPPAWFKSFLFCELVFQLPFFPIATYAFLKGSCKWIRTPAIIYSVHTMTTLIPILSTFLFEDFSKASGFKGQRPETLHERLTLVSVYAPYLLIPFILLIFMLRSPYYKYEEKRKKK

As for `CN(C)C(=S)N/N=C1\C(=O)N(CCCCN2CCC3(CC2)OCc2ccccc23)c2ccccc21` [FA4, (Z)-2-(1-(4-(3 H-spiro[isobenzofuran-1,4’-piperidine]-1’-yl)butyl)-2-oxoindolin-3-ylidene)-N,N-dimethylhydrazinecarbothioamide], the EC50 (in general, the concentration that produces a half-maximal response) was 3.01 ± 0.8 µM in the series on PANC-1 cells (MTT 48 h, read-out: Activity EC50 ± SEM, PANC-1); 1980 ± 400 nM with MiaPaCa2 cells; 6.11 ± 1.1 µM in the series with HPDE cells; 1360 ± 200 nM with BxPC3 cells; 880 ± 100 nM with KP02 cells; 1390 ± 300 nM in the series with AspC1 cells. Further, the figures for the EC50 (in series [2]; with PANC02 cells) were 880 to 3010 nM and 1940 ± 500 nM, respectively. In addition, the 50% inhibitory concentration (IC50) (usually the concentration that gives 50% inhibition) in the series with PANC-1 cells (read-out: IC50 in PANC1 cells (discussion)) is 3.01 µM; on sigma-1 receptors (Flow Cytometry, IC50 ± SEM, Sigma-1, MiaPaCa2, MiaPaCa2 cells, displacement of LM1), 53.2 ± 5.6 nM; on sigma-1 receptors (Flow Cytometry, IC50 ± SEM, Sigma-1, PANC-1, PANC-1 cells, displacement of LM1), 51.3 ± 4.3 nM; at sigma-1 receptors (IC50 at sigma-1 receptor by flow cytometry (discussion), PANC-1 and MiaPaCa2 cells), around 50 nM; on sigma-2 receptors [3], 11.6 ± 1.5 nM; at sigma-2 receptors [5] (Flow Cytometry, IC50 ± SEM, Sigma-2, AspC1, AspC1 cells, displacement of NO1) it was 10.6 ± 2.2 nM. Further, the IC50 on sigma-2 receptors [5] (Flow Cytometry, IC50 ± SEM, Sigma-2, MiaPaCa2, MiaPaCa2 cells, displacement of NO1) is 9.13 ± 1.1 nM; at sigma-2 receptors [5] (Flow Cytometry, IC50 ± SEM, Sigma-2, PANC-1, PANC-1 cells, displacement of NO1), 11.4 ± 2.3 nM; on sigma-2 receptors [5] (IC50 at sigma-2 receptors by flow cytometry, across MiaPaCa2, PANC-1, Aspc1 and (murine) KP02 cells), 9.13 to 11.6 nM and ~10 nM. In [1], the mitochondrial depolarization entry was “all FA4-treated cells had depolarized (i.e., damaged) mitochondria, except MiaPaCa2”. Further, the “lower affinity for the sigma-1 receptor compared to the sigma-2 receptor” value at sigma-1 receptors (flow cytometry IC50 values) is recorded as 5 fold. The “caspase 7 activation” value in the series on caspase 7 is given as “activated by FA4 in all cell lines except MiaPaCa2”. For the same molecule, the “blood cell counts and hemato-chemical parameters vs control” value in [4] is “no significant differences”. Moreover, the “levels of autophagosome proteins, p62 and LC3 conversion” value in series [6] is recorded as “reduced the levels of all the above-mentioned proteins as well as the LC-I/LC-II conversion in responsive cells, but not in MiaPaCa2 cells”.

The record behind these values is article PMC8648660, “Multifunctional thiosemicarbazones targeting sigma receptors: in vitro and in vivo antitumor activities in pancreatic cancer models” (Cellular Oncology, 2021).
